Experimental findings from patent US20230049350A1, “COMPOUNDS FOR TREATING BRAIN CANCER” (Purdue Pharmaceutical Products L.P., priority 2014, published 2023) are described below.

Molecules are shown by their SMILES. Where two headings read alike, the source gives them in different places.

The subject of one data set is U87. Description: Clonogenic survival with radiotherapy, U87. The class given is cell-based. Particulars: 2.5 µM or 5 µM, 24 hr, plus radiotherapy, FIG. 10. On the procedure:
(§1) In a first experiment, U251, U87 and T98G cell lines were treated with radiotherapy alone or with radiotherapy and EDO-S101.
(§2) For clonogenic survival, exponentially growing cells (70% confluence) were cultured in regular media and treated with EDO-S101 at the appropriate concentrations, or vehicle (final DMSO concentration of 0.1%) for 24 hr. Tumour cell irradiation was done using a 6 MV linear accelerator Elekta Synergy using a clinically calibrated irradiation field of 30 × 30 cm. Two cm thick plates of perspex were positioned above and below the cell culture flasks completely filled with medium to compensate for the build-up effect. Non-irradiated controls were handled identically to the irradiated cells with the exception of the radiation exposure. […] Colonies containing more than 50 cells were counted. The plating efficiency (PE) was calculated as the number of colonies observed/the number of cell plated. The surviving fraction was calculated as the number of colonies formed in the treated dishes compared with the number formed in the control. The survival curves were analyzed using SPSS (Chicago, IL) statistical software by means of a fit of the data by a weighted, stratified, linear regression, according to the linear-quadratic formula: S(D)/S(O)=exp-(aD+bD2).

Another data set has as its system U87 tumours. Description: Mice with implanted U87 tumours, time to progression (Example 3). It is filed as in vivo. Particulars: 60 mg/kg iv days 1, 8 and 15, FIG. 9. On the procedure: (§3) The above procedure was followed in similar manner using the cell lines U87G and U251G. Once again, EDO-S101 (60 mg/kg) was administered intravenously via the tail vein, but in these experiments it was administered at days 1, 8 and 15. In place of bendamustime, TMZ was administered as a comparison at 16 mg/kg for 5 consecutive days, po. The mice were sacrificed after 28 days.

Another data set relates to U251. Description: Clonogenic survival with radiotherapy, U251. It is filed as cell-based. Conditions: 2.5 µM or 5 µM, 24 hr, plus radiotherapy, FIG. 10. The method, then: as §1, §2
In a further data set the test system is U251 tumours. Description: Mice with implanted U251 tumours, time to progression (Example 3). The class given is in vivo. Particulars: 60 mg/kg iv days 1, 8 and 15, FIG. 8. The method, then:
as §3

A short description of data set [1]: CNS pharmacokinetics by blood and brain-ventricle microdialysis, CE-UV. The class given is in vivo, Sprague-Dawley Rats. Particulars: Sprague-Dawley, rat; for Cmax: intravenous, 40 mg/kg tail vein injection; for AUC(0-t): read-out: AUC (0-12) (converted); for half-life: iv, 40 mg/kg. On the procedure:
CNS pharmacokinetics was determined in rats after a tail vein injection of EDO-S101 at 40 mg/kg. Microdialysate samples were collected from the blood and a ventricle of the brain via microdialysis probes at 18 time intervals. The drug concentrations in these samples were determined by capillary electrophoresis with UV detection (CE-UV) followed by calculations for various pharmacokinetic parameters.
Six rats were anesthetized with gasiform isoflurane (1% isoflurane in a mixture of 20% oxygen and 80% nitrogen gas) and immobilized in a stereotaxic frame (KOPF Instruments, Tujunga, CA). Anaesthesia was maintained during the entire procedure. Each guide cannula (CMA Microdialysis Inc., Acton, MA) was stereotactically implanted into the lateral ventricle (AP -0.9, L 1.6, V 3.4, relative to bregma and skull), then secured to the skull by screws and dental cement. Following surgery, each rat was housed individually with food and water ad libitum for 3 days for recovery from cannulation surgery. Microdialysis experiments were carried out on conscious, freely moving rat. On the day of the experiment, the stylet in the guide cannula was replaced with the microdialysis probe (CMA/11 with 4 mm membrane, CMA Microdialysis Inc., Acton, MA) and a vascular microdialysis probe (CMA/20 with 4 mm membrane, CMA Microdialysis Inc, Acton, MA)) was implanted into the jugular vein. The probes had inlet tubes connected to syringes to deliver artificial cerebrospinal fluid (146 mM NaCl, 1.2 mM CaCl2, 3 mM KCI, 1 mM MgCl2, 1.9 mM Na2HPO4, 0.1 mM NaH2PO4, pH 7.4) into the ventricle and Dulbecco’s phosphate-buffered saline (D-PBS) into the blood at 0.5 µl/min flow rate. The outlet tubes were connected to a microfraction collector for collecting the microdailysates at 4° C. The rats were allowed to recover for at least 24 hours prior to dosing. Eighteen samples were collected over 3 hours after EDO-S101 injection (intravenously). All samples were applied to the capillary electrophoresis with UV detection (CE-UV) for the determination of concentration of EDO-S101 in the cerebrospinal fluid (CSF) and blood. The rats were sacrificed using CO2 inhalation after the experiment. The position of the probe was verified by visual inspection at the end of each experiment.
EDO-S101 in the microdialysate were measured by CE-UV (Agilent 3D CE). Briefly, the capillaries were preconditioned with 1 M sodium hydroxide for 2 min, water for 2 min and running buffer [100 mmol/l solution of ammonium acetate (adjust to pH 3.1 with acetic acid)-acetonitrile (50:50, v/v) ] for 3 min. The samples were injected at a pressure of 0.7 psi for 5 s and the injection volume was approximately 5 nl. After injection, EDO-S101 was separated in a fused silica capillary of 50 µm I.D. and 50/65 cm length (effective length/total length) under 15 kv and 25° C. The absorbance from EDO-S101 was detected with UV at […]. […].
To perform a statistical analysis on the data, a two-way repeated measures ANOVA followed by Tukey’s test was used. P<0.05 was considered significant. CNS penetration is determined as the ratio of CSF and blood area under the curve (AUC).

A further data set relates to T98G. Nature of the data set: Clonogenic survival with radiotherapy, T98G. It is filed as cell-based. Conditions: 2.5 µM or 5 µM, 24 hr, plus radiotherapy, FIG. 10. The method, then:
as §1, §2

Where [2] appears, read: CSF (brain lateral ventricle microdialysate), Brain (CSF), 40 mg/kg iv.
The mark [3] stands for this setting: blood (jugular vein microdialysate), Blood, 40 mg/kg iv.

`Cn1c(CCCCCCC(=O)NO)nc2cc(N(CCCl)CCCl)ccc21` [EDO-S101]: the “% survival rate (surviving fraction) with radiotherapy versus radiotherapy alone” value in the data set with U87, with U251 and in the data set on T98G was “considerably reduced” in each case. Further, the “time to progression (TTP) versus control and TMZ” value with U87 tumours and in the data set with U251 tumours was “significantly longer” in each case. Also, the peak concentration (Cmax) is 11.2 µM in data set [1] (CSF (brain lateral ventricle microdialysate), Brain (CSF)) and 184 µM in data set [1] (blood (jugular vein microdialysate), Blood). For the same compound, the values for the Tmax in data set [1] (setting [2]) and in data set [1] (setting [3]) were 5.67 min and 2.33 min, respectively. Also, the AUC(0-t) in data set [1] (setting [2]) was 2.27 µM·h; in data set [1] (setting [3]) it was 13.7 µM·h. The half-life in data set [1] (setting [2]) was approximately 9 min; in data set [1] (setting [3]) it was approximately 6 min. Besides, the Kp in data set [1] (ratio of CSF and blood AUC, 40 mg/kg iv, read-out: AUC ratio (Brain:Blood), CNS penetration) worked out at 0.165.

For orientation: Cmax means the highest concentration seen after dosing. The term Tmax denotes the time at which the peak concentration occurs. The half-life is the time in which the quantity being followed falls by half. The low end stands for rapid decline, the high end for slow decline.
